US8389526B2, “3-heteroarylmethyl-imidazo[1,2-b]pyridazin-6-yl derivatives” (Novartis AG, priority 2009, dated 2013)
≈ marks a conversion by molar mass, not a printed value. Where two headings read alike, the source gives them in different places.

Columns and labels:
[1] = system: MET-amplified gastric cancer cell line GTL-16; test: GTL-16 proliferation assay (MTS); format: cell-based; conditions: Homo sapiens, GTL-16 cells, 72 h incubation
Procedure, shortened: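 GTL-16 cells were seeded at 3000/well in DMEM with 10% FCS. After 24 h they were treated in triplicate with a 10-point, 3-fold dilution series ([…]; DMSO-only control) for 72 h. Viable cells were measured by MTS, with OD 490 nm read after 30 min.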

c-Met = molecular target: T1, c-Met (Homo sapiens, UniProt P08581); test: GTL-16 c-Met autophosphorylation measured by AlphaScreen detection; format: cell-based; conditions: GTL-16 cells, 1 h incubation, AlphaScreen p-c-Met; read-out: GTL-16 IC50 c-Met phosphorylation
T1 construct: adapted to measure the phosphorylation of endogenous cellular proteins in cell lysates; endogenous in cells; host or cells: GTL-16
T1 sequence (P08581 25-1390): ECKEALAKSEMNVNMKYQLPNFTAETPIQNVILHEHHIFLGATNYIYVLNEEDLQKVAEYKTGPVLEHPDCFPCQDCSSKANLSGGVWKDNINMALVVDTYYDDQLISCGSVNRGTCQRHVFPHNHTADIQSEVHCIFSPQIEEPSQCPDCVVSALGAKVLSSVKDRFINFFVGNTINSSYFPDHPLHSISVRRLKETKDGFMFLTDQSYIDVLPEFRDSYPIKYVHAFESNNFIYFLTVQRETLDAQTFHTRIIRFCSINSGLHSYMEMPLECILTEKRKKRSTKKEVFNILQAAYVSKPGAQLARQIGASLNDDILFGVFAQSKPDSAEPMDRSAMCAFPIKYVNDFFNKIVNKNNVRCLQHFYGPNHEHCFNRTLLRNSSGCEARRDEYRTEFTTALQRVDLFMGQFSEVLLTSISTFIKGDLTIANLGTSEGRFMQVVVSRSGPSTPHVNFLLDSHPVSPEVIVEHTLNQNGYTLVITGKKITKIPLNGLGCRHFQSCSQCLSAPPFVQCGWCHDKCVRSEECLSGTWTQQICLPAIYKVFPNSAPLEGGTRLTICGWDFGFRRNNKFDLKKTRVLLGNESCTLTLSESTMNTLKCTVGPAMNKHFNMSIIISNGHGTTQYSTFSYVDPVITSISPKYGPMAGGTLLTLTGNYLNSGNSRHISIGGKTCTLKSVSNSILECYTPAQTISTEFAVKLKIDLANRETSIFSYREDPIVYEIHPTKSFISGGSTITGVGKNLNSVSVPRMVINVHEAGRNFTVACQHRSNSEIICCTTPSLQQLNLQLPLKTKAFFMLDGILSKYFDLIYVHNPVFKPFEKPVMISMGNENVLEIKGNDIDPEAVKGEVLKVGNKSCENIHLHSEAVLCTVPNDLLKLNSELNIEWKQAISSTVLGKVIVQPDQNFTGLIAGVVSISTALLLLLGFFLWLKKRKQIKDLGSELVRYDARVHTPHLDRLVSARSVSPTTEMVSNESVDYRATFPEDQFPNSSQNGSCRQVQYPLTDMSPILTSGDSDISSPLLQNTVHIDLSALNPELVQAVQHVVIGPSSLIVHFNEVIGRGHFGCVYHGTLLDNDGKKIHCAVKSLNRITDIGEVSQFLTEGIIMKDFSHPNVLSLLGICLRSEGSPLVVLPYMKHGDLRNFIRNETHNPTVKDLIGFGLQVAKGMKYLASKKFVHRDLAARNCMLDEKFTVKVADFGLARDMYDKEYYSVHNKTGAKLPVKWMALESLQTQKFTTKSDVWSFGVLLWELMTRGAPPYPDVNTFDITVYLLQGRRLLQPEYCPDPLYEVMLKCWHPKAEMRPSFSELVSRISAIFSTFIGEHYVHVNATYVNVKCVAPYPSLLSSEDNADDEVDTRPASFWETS
Procedure, shortened: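 GTL-16 MET-amplified gastric cancer cells, serum-free DMEM with 0.1% BSA, exposed to 8-point compound dilutions for 1 h at 37° C (0.11% DMSO final). Lysates probed for phospho-c-Met by AlphaScreen using anti-c-Met antibody, biotinylated PY20 phosphotyrosine antibody, Protein A acceptor and streptavidin donor beads.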

[2] = Solubility assay at pH 7 and in FaSSIF; format: physicochemical; conditions: thermodynamic from solid
Description: A number of compounds of the present invention were assayed in a solubility assay at pH 7 and in fasted state simulated intestinal fluid (FaSSIF).
Solubility of the compounds was determined by suspending about 0.3 to 1.0 mg of drug substance in 0.1 mL of phosphate buffer at pH 7 and respectively FaSSIF.
Buffer pH 7 was obtained from MERCK as Tritisol® Phosphate Buffer. The Medium to Simulate the Fasted State Upper Small Intestine (Fasted State Simulated Intestinal Fluid) or FaSSIF was developed according to J. Dressmann publication Jantratid Ekarat; Janssen Niels; Reppas Christos; Dressman Jennifer B Dissolution media simulating conditions in the proximal human gastrointestinal tract: an update. Pharmaceutical research (2008), 25(7), 1663-76.
Composition from the FaSSIF is described in the following Table 3.
The suspensions or solutions were stirred over night at room temperature. After separation of the un-dissolved part by filtration (centrifugation using 0.45 μm PVDF or PTFE filters), the solutions were if necessary, diluted with acetonitrile to obtain concentrations below 1.0 mg/mL prior to UPLC analysis. Samples were then analyzed by UPLC to get the concentrations level of compound in the different media. Prior to analysis a method has been developed for each compound with an according calibration.
UPLC parameters: Column Aquity50*2.1 mm C18 1.7ym; Column temperature: 40° C.; mobile phase A: water MilliQ+0.1% TFA and B acetonitrile, gradient grade, +0.1% TFA.

[3] = FaSSIF (fasted state simulated intestinal fluid), fassif, fasted state simulated intestinal fluid, stirred over night at room temperature, read-out: Solubility FaSSIF
[4] = aqueous buffer, phosphate buffer pH 7, stirred over night at room temperature, read-out: Solubility Buffer pH 7

SMILES	IC50 [1] [nM]	IC50 (c-Met) [nM]	solubility [2, 3] [µg/mL]	solubility [2, 4] [µg/mL]
C[C@@H](c1c(F)cc2ncccc2c1F)c1cnc2ccc(N3CCNC(=O)C3)nn12 (single isomer, unassigned) [Example 5]	3.6	< 3	164 (≈ 402 µM)	91 (≈ 223 µM)
C[C@@H](c1c(F)cc2ncccc2c1F)c1cnc2ccc(N3CCN(C)C(=O)C3)nn12 [Example 2, 4-{3-[(S)-1-(5,7-Difluoro-quinolin-6-yl)-ethyl]-imidazo[1,2-b]pyridazin-6-yl}-1-methyl-piperazin-2-one]	1.7	2.7	289 (≈ 684 µM)	29 (≈ 68.6 µM)
C[C@@H](c1c(F)cc2ncccc2c1F)c1cnc2ccc(N3CCNCC3)nn12 [Example 7, 5,7-Difluoro-6-[(S)-1-(6-piperazin-1-yl-imidazo[1,2-b]pyridazin-3-yl)-ethyl]-quinoline]	6.4	2.1	172 (≈ 436 µM)	248 (≈ 629 µM)
CC(=O)N1CCN(c2ccc3ncc([C@@H](C)c4c(F)cc5ncccc5c4F)n3n2)CC1 [Example 11, 1-(4-{3-[(S)-1-(5,7-Difluoro-quinolin-6-yl)-ethyl]-imidazo[1,2-b]pyridazin-6-yl}-piperazin-1-yl)ethanone]	7.2	4.4	1350 (≈ 3100 µM)	32 (≈ 73.3 µM)
C[C@@H](c1cc2cnn(C)c2cc1F)c1cnc2ccc(N3CCNC(=O)C3)nn12 [Example 28, 4-{3-[(S)-1-(6-Fluoro-1-methyl-1H-indazol-5-yl)-ethyl]-imidazo[1,2-b]pyridazin-6-yl}-piperazin-2-one]	26	11	374 (≈ 951 µM)	117 (≈ 297 µM)
